Measurements from publication PMC5515887, “Ruthenium-conjugated chrysin analogues modulate platelet activity, thrombus formation and haemostasis with enhanced efficacy” (Scientific Reports, 2017).

Experiments:
AKT = experiment: Immunoblot of AKT phosphorylation at S473 in CRP-XL activated platelets; assay type: cell-based, human; conditions: washed platelets, CRP-XL 0.5 μg/mL
From the text: The calcium traces (Ai and Bi) shown are representative of three separate experiments. […] The platelets were lysed and used for immunoblot analysis to detect the level of AKT phosphorylation at residue S473, FAK phosphorylation at Y397 and phosphorylation of Src at Y527. The level of 14-3-3ζ protein was detected as a loading control. The cropped images of the blots shown here are representative of three separate experiments. The uncropped full length blots are presented in Supplementary Information (Figure S8).
Calcium mobilisation is associated with phosphoinositide 3-kinase (PI3K) signalling in platelets. Protein kinase B (AKT) is a downstream effector of PI3K and a key marker for the PI3K/AKT signalling pathway. […]
(§1) The preparation of human platelets and aggregation assays were performed using standard protocols as described by us previously, [16]. Briefly, human blood was collected in 3.2% citrate containing vacutainers via venepuncture from healthy, aspirin-free individuals with informed consent in accordance with the methods approved by the University of Reading Research Ethics Committee. […] Dense granule secretion in platelets was determined by measuring the ATP release using the luciferin-luciferase reagent by lumi-aggregometry (Chrono-Log, USA). […]

[1] = system: human platelet-rich plasma (PRP); experiment: CRP-XL-induced platelet aggregation in human platelet-rich plasma (optical aggregometry); assay type: cell-based
Procedure: Therefore, to determine the effects of various concentrations of chrysin and its derivatives in the presence of plasma proteins, aggregation assays were performed using human platelet-rich plasma (PRP) and 0.5 μg/mL CRP-XL.
Figure 3 Impact of chrysin and its derivatives on platelet activation in platelet-rich plasma. […] The platelet aggregation was monitored for 5 minutes. The traces shown are representative of three separate experiments.
(§2) The preparation of human platelets and aggregation assays were performed using standard protocols as described by us previously, [16]. Briefly, human blood was collected in 3.2% citrate containing vacutainers via venepuncture from healthy, aspirin-free individuals with informed consent in accordance with the methods approved by the University of Reading Research Ethics Committee. All methods were performed in accordance with the relevant institutional and national guidelines and regulations. Blood samples were centrifuged at 102 g for 20 minutes at room temperature to separate the PRP, which was used in aggregation, flow cytometry, static platelet adhesion, calcium mobilisation and clot retraction assays. For the preparation of washed platelets, 50 mL of blood samples were mixed with 7.5 mL of ACD (acid citrate dextrose) (20 g/L glucose, 25 g/L sodium citrate and 15 g/L citric acid) and centrifuged at 102 g for 20 minutes at room temperature. The PRP was carefully aspirated from the other blood cells prior to mixing with 3 mL of ACD and centrifuging at 1413 g for 10 minutes at room temperature. The resulting platelet pellet was re-suspended in modified Tyrodes-HEPES buffer (2.9 mM KCl, 134 mM NaCl, 0.34 mM Na2HPO4.12H20, 1 mM MgCl2, 12 mM NaHCO3, 20 mM HEPES, pH 7.3) and washed by centrifuging again at 1413 g for 10 minutes. The resulting platelet pellet was suspended in modified Tyrodes-HEPES buffer at a density of 4 × 10^8 cells/mL for aggregation, dense granule secretion, cellular uptake studies and calcium mobilisation assays. Human platelet aggregation was performed using CRP-XL as an agonist in the presence and absence of various concentrations of chrysin and its synthetic derivatives by optical aggregometry. A vehicle control [DMSO at a concentration of less than 0.1% (v/v)] was included in all the experiments. Dense granule secretion in platelets was determined by measuring the ATP release using the luciferin-luciferase reagent by lumi-aggregometry (Chrono-Log, USA). SDS-PAGE and immunoblotting analysis were performed using standard protocols. The rabbit anti-phospho-specific antibodies for human AKT pS473, FAK pY397 and Src pY527 were obtained from Abcam, UK and rabbit anti-human 14-3-3ζ (Santa Cruz Biotechnology, USA) was used to detect protein 14-3-3ζ as a loading control in immunoblot assays. The Cy5-conjugated goat anti-rabbit IgG (Life technologies, UK) was used as the secondary antibody.

[2] = system: dense granule secretion in washed platelets; experiment: ATP release by lumi-aggregometry (marker for dense granule secretion); assay type: cell-based, human; conditions: 100 μM compound, CRP-XL 0.5 μg/mL
Procedure: Figure 5 Chrysin and its derivatives affect granule secretion in platelets. […] The level of P-selectin (as a marker for α-granule secretion) was quantified using PECy5-labelled anti-human P-selectin antibodies by flow cytometry. […] R represents ‘resting’ platelets. […] Platelets were then activated with 0.5 μg/mL CRP-XL and the ATP release was monitored for 5 minutes by lumi-aggregometry. The traces shown are representative of three separate experiments.
as §1, with “Committee. All methods were performed in accordance with the relevant institutional and national guidelines and regulations. Blood samples were centrifuged at 102 g for 20 minutes at room temperature to separate the PRP, which was used in aggregation, flow cytometry, static platelet adhesion, calcium mobilisation and clot retraction assays.” for “Committee.”

human whole blood = experiment: In vitro thrombus formation under arterial flow conditions on collagen-coated Vena8 biochips; assay type: cell-based; conditions: 100 μM compound
Procedure: Platelet activation under arterial flow conditions culminates in the formation of thrombus at the damaged blood vessels and thereby reducing the blood supply to target tissues.
(§3) Thrombus formation was monitored by capturing Z-stack fluorescent images at every 30 seconds over 10 minutes by fluorescence microscopy. The images shown (A) at different time points and traces (B) are representative of three separate experiments. […] Data represent ± S.D. (n = 8 mice in each group).
Z-stack images of thrombi were obtained every 30 seconds for up to 10 minutes using a Nikon eclipse (TE2000-U) microscope (Nikon Instruments, UK). The median fluorescence intensity and thrombus volume were calculated by analysing the images using ImageJ.

haemostasis in mice = experiment: Tail bleeding assay; assay type: in vivo, C57BL/6 mice; conditions: final concentration 25 μM via femoral artery, 5 minutes before tail tip dissection, control 445 seconds
Procedure: as §3, with “group). The p values shown (*p < 0.05 and ***p < 0.001) are as calculated by non-parametric Mann-Whitney test using Graphpad Prism.” for “group).”
Following five minutes incubation, 1 mm of tail tip was dissected and the bleeding time was monitored.
The University of Reading Local Ethical Review Panel and the British Home Office approved the tail-bleeding assay performed in this study. All methods were performed in accordance with the relevant guidelines and regulations. In brief, C57BL/6 mice (9 weeks old; Envigo, UK) were anaesthetized using ketamine (80 mg kg^−1) and xylazine (5 mg kg^−1) administered via intraperitoneal route 20 minutes prior to the experiment and placed on a heated pad (37 °C). […] The tail tip was placed in sterile saline at 37 °C and the time to cessation of bleeding was measured up to 20 minutes.

human washed platelets = experiment: CRP-XL-induced aggregation of human washed platelets (optical aggregometry); assay type: cell-based; conditions: CRP-XL 0.5 μg/mL
Procedure: To determine the effects of chrysin and thio-chrysin and their Ru-complexes in the modulation of platelet activation, aggregation assays were performed using cross-linked collagen-related peptide (CRP-XL) as a platelet agonist, by optical aggregometry. Firstly, to determine the effects of chrysin and its derivatives on isolated platelets, aggregation assays were performed using human washed platelets (devoid of plasma proteins and other blood cells).
Figure 2 Effects of chrysin and its derivatives in washed platelet aggregation. […] The aggregation traces shown are representative of three separate experiments.
as §2

Molecule | effect on AKT phosphorylation at S473 (AKT) | effect on platelet aggregation at lower concentrations ([1]; PRP, 6.25 μM and 12.5 μM compound, CRP-XL 0.5 μg/mL) | reduction in platelet aggregation ([1]; PRP, 100 μM compound, CRP-XL 0.5 μg/mL) | inhibition at 100 µM ([2]; Homo sapiens, Platelet) [%] | inhibition at 100 µM (human whole blood; 10 min, 20 dynes/cm^2, read-out: inhibition of thrombus growth and volume) [%] | bleeding time (average) (haemostasis in mice) [s] | reduction in CRP-XL-induced platelet aggregation (human washed platelets; 6.25 μM compound) | effect on CRP-XL-induced platelet aggregation in washed platelets (human washed platelets) | effect on platelet aggregation in PRP ([1]; PRP, CRP-XL 0.5 μg/mL) | greater inhibition of platelet function and thrombus formation in vitro than chrysin ([1]; physiologically relevant conditions such as platelet-rich plasma and whole blood) [fold] | inhibition of dense granule secretion (ATP release) [2] [%] | inhibition of thrombus growth and volume (human whole blood; 20 dynes/cm^2, 10 minutes)
O=c1cc(-c2ccccc2)oc2cc(O)cc(O)c12 [chrysin] | inhibited their phosphorylation in a concentration-dependent manner | did not exhibit significant effects | around 40% | 100 | ~50 | 901 | approximately 80% | inhibited CRP-XL (0.5 μg/mL)-induced aggregation in washed platelets in a concentration-dependent manner | – | – | – | –
chlorido [(5-oxo-κO)-7-hydroxy-(2-phenyl)-4H-chromen-4-thionato-κS] (η6-p-cymene)ruthenium(II) [Ru-thio-chrysin] | inhibited their phosphorylation in a concentration-dependent manner | – | – | – | – | 1096 | – | inhibited CRP-XL-induced platelet aggregation in a concentration-dependent manner | significant effect at lower concentrations including 6.25 μM | 4 | 100 | approximately 75%
